In general, IC50 refers to the concentration that gives 50% inhibition. As a reminder, the GI50 is the concentration that inhibits growth by half. A lower GI50 goes with more potent growth inhibition.

In one assay the test system is endogenous MYB. Kind of assay: 5×MRE-luciferase reporter assay in Jurkat cells. It counts as cell-based. Particulars: Homo sapiens, 5×MRE firefly luciferase, 18 hours, normalized to DMSO. Here is the method:
(§1) An assay using a 5×Myb-response element (MRE)-luciferase construct was used to evaluate the compounds' ability to bind MYB and/or disrupt the MYB-NFIB interaction. The 5×MRE reporter was conducted in both HEK293T cells and Jurkat cells, and for the HEK293T system a transient transfection of plasmid vectors expressing either MYB or MYB-NFIB, and a plasmid containing the 5×MRE promoter sequence cloned upstream of Firefly luciferase were used. For the Jurkat system, the reporter was driven by endogenous MYB, and the 5×MRE construct was transiently transfected. Cells were treated with two different high concentrations of each compound (10 and 20 µM) and the luciferase activity was measured 18 hours post-treatment. Individual wells were normalized for viability (cell count) using the Cyto-tox One assay (Promega).
Jurkat cells were reverse transfected at a density of 40,000 cells/well at the time of plating with a plasmid encoding 5×MRE reporter construct driving firefly luciferase expression. 4 hours following transfection, the compound analogs were added using a Tecan transfer tool to the wells. The plate was incubated for 18 hours, and then firefly luciferase signal was measured using promega Steady-glo luciferase assay system according to the manufacturer's protocols. The signal was normalized to control wells which were treated with DMSO vehicle.

Another assay concerns Jurkat. As to the kind of experiment: Cell Titer Glo viability assay, Jurkat. It counts as cell-based. Particulars: Homo sapiens, read-out: IC50 Cell Titer Glow Viability Jurkat.
Another assay has as its system c-Myb. Kind of assay: 5×MRE-luciferase reporter assay in HEK293T cells. Type of assay: cell-based. Particulars: Homo sapiens, HEK-293T; c-Myb plus 5×MRE firefly luciferase transfected, 18 hours, normalized to DMSO. The procedure: as §1
HEK293T cells were plated at a density of 7500 cells/well in a 384-well plate. The following day, the cells were transfected with plasmids encoding 1)c-Myb under control of a CMV promoter, 2) 5×MRE reporter construct driving firefly luciferase expression in a 1:2 ratio. 4 hours following transfection, compound analogs were added using a Tecan transfer tool to the wells. The plate was incubated for 18 hours, and then firefly luciferase signal measured using promega Dual-Glo luciferase assay system according to the manufacturer's protocols. The signal was normalized to control wells which were treated with DMSO vehicle.

For assay [1], the system named is MM1.S, a multiple myeloma line. As to the kind of experiment: Cell Titer Glo assay, MM1.S. It counts as cell-based. Particulars: Homo sapiens, FIG. 3B. From the text: FIG. 3B is a plot showing Cell Titer Glo assay results for KI-TM-001 in several hematopoietic lines versus prostate and ovarian cell lines.
(§2) Efforts have also included assessment of impact on viable cell growth using traditional luminescent cell viability assays (e.g., CellTiter-Glo™ or GTG) and high-throughput profiling in barcoded and pooled cancer cell lines. Collaboration with the Broad Institute's PRISM cell profiling platform provided the ability to survey sensitivity to KI-TM-001 against 800 cancer cell lines representing a broad spectrum of lineages, including 300 suspension lines and 500 adherent lines.
(§3) Roughly 650 of the lines passed quality control analyses. […] The CTG assay is well established has been used to survey viability of cell lines used routinely in the lab, noting a separation between solid tumor lines and hematopoetic lineages (FIG. 3B).
(In ATP-based viability assays light output follows the ATP content of the culture.)

The target of assay [2] is T1, MYB (Homo sapiens, UniProt P10242). Kind of assay: Initial binding studies, MYB. The procedure: (§4) Next, analogues of KI-TM1-001 were prepared and evaluated. Compounds of Formula (I) may be prepared using the synthetic schemes and procedures described in detail below.
Target sequence in this assay (P10242 whole entry, species assumed): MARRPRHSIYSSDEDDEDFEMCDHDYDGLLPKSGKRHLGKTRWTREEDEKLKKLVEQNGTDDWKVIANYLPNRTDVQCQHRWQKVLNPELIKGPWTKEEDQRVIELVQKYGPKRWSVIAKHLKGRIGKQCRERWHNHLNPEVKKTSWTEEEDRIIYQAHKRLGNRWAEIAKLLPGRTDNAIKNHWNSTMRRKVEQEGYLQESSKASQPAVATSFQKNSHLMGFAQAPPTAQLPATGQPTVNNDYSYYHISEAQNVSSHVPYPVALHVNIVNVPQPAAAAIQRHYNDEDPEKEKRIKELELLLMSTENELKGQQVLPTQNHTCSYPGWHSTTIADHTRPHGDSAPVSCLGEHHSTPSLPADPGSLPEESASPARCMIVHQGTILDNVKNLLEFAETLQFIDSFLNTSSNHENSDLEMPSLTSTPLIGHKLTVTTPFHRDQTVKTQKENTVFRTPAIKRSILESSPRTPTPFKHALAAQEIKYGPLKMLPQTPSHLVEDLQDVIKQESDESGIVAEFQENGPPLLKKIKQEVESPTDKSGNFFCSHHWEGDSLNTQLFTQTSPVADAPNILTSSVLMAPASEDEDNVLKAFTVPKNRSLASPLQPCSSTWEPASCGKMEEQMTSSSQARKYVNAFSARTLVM
The next assay deals with T2, MYB-TAF12 interaction (Homo sapiens, UniProt P10242).
T2 construct: BRET donor or acceptor fusion (which one is not specified); expressed in transfected cells
As to the kind of experiment: In-cell BRET protein-protein interaction assay. Type of assay: cell-based. Particulars: FIG. 1B, read-out: IC50 for blocking the MYB-TAF12 interaction. The procedure: (§5) In-cell bioluminescence resonance energy transfer (BRET) assays were developed to assess the influence of the compounds on MYB-p300 and MYB-TAF12 interactions (FIG. 1A). […] The ability of KI-TM-001 to modulate MYB protein and transcript levels in MOLT4 and Jurkat cells was also evaluated. […] Degradation appears to be proteasome-dependent as MYB can be rescued by treatment with the proteasome inhibitor MG132.
Background: BRET reads energy transfer from a luciferase to a nearby fluorophore.

The test system of a further assay is 800 cancer cell lines. As to the kind of experiment: PRISM cell profiling in barcoded and pooled cancer cell lines. Type of assay: cell-based.
Description: as §2, §3

Another assay relates to Molt4-5×MRE-FLuc cells. Kind of assay: Cell-Titer Glo viability assay, Molt4-5×MRE-FLuc cells. Particulars: 4 hours; read-out: IC50 Cell Titer Glo Molt4-5xMRE-FLuc Viability. It counts as cell-based. The procedure: Molt4-5×MRE-FLuc cells were plated at a density of 10000 cells/well in 25 uL of media in a 384-well plate. The following day, compound analogs were added using a Tecan transfer tool. The plates were incubated for 4 hours, and then the viability was measured using promega Cell-titer glo assay according to the manufacturer's protocols.

The test system of another assay is MYB-NFIB fusion protein. Kind of assay: Initial binding studies, MYB-NFIB. Here is the method: as §4
Another assay relates to APL line NB4. As to the kind of experiment: PRISM cell profiling, NB4. Type of assay: cell-based. The conditions noted are these: PRISM data set.
Description: as §2, §3

The target of assay [3] is T1, MYB. As to the kind of experiment: MYB protein levels in MOLT4 and Jurkat cells. It counts as cell-based. On the set-up: endogenous in cells; host or cells: MOLT4 and Jurkat cells. The procedure: FIG. 2 is a plot showing a dose curve of KI-TM-001, and its effect on MYB protein levels in Molt4 at the 6 hour timepoint.
as §5
Target sequence in this assay (P10242 whole entry): as the sequence (P10242 whole entry, species assumed) above

A further assay deals with endogenous Myb protein. Kind of assay: Molt4-5×MRE-FLuc reporter assay. It counts as cell-based. The conditions noted are these: 4 hours, One-Glo, normalized to DMSO; read-out: IC50 Molt4-5xMRE-FLuc Reporter. Here is the method: Molt4 cells were stably transduced with a lentiviral construct encoding a 5×MRE Myb-responsive promoter driving firefly luciferase expression. The reporter output is controlled by the levels/activity of endogenous Myb protein in the Molt4 cell line.
Molt4-5×MRE-FLuc cells were plated at a density of 10000 cells/well in 25 uL of media in a 384-well plate. Compound analogs were added using a Tecan transfer tool to the wells. The plate was incubated for 4 hours, and then firefly luciferase signal measured using promega One-Glo luciferase assay system according to the manufacturer's protocols. The signal was normalized to control wells which were treated with DMSO vehicle.
In general terms: A reporter such as luciferase makes a cellular process visible.

Each structure is given as a SMILES string. Values joined by “and” are separate entries in the source; they are usually repeats but may differ in a detail not shown here. Identical values can stand only once. “Also recorded” adds a separate entry of the source.

T2 sequence (P10242 whole entry, the tested form may be a part): as the sequence (P10242 whole entry, species assumed) above

In the case of `Cc1cc(NCCCNCc2cccc(N3CCCC3)c2)nc(N)n1` [drawing 243], the values for the concentration for half-maximal inhibition (IC50) in the assay with endogenous MYB and in the assay on Jurkat were 8.55 µM and more than 30 µM, respectively.

Turning to `Cc1cc(N2CCC(NCc3cccc(C(C)(C)C)c3)CC2)nc(N)n1` [drawing 245], in the assay with c-Myb, the half-maximal inhibitory concentration (IC50) was more than 30 µM.

Consider `Cc1cc(N2CCC(NCc3cccc(N(C)C)c3)CC2)nc(N)n1` [drawing 237], for which the figures for the IC50 in the assay on endogenous MYB, in the assay with c-Myb and in the assay with Jurkat were more than 40 µM, more than 40 µM and more than 30 µM, respectively.

Consider `Cc1cc(N2CCC(NCc3ccccc3N3CCCC3)CC2)nc(N)n1` [drawing 232], for which the IC50 in the assay with endogenous MYB is 3.09 µM; in the assay with c-Myb it was more than 40 µM; in the assay on Jurkat it was more than 30 µM.

In the case of `Cc1cc(N2CCC(NCc3cccc(-n4cccc4)c3)CC2)nc(N)n1` [drawing 236], the IC50 in the assay with endogenous MYB stood at 12.1 µM; with c-Myb it was 14.8 µM; with Jurkat, 21.6 µM.

Take `CCN(CC)c1ccc(CNC2CCN(c3cc(C)nc(N)n3)CC2)cc1` [drawing 246]: in the assay on c-Myb, the half-inhibitory concentration (IC50) is more than 30 µM.

As for `Cc1cc(N2CCC(NCc3ccc(N4CCCC4)cc3)CC2)nc(N)n1` [drawing 233], the IC50 with endogenous MYB was 17.3 µM; in the assay with c-Myb, more than 40 µM; with Jurkat it was more than 30 µM.

Consider `Cc1cc(N2CCC(NCc3cccc(N4CCCC4)c3)CC2)ncn1` [drawing 244], for which the IC50 in the assay with c-Myb was more than 30 µM.

In the case of `Cc1cc(N2CCC(N(Cc3cccc(N4CCCC4)c3)C(=O)NC(C)C)CC2)nc(N)n1` [drawing 230], the figures for the 50% inhibitory concentration (IC50) in the assay with endogenous MYB and in the assay on Jurkat were 26.4 µM and more than 30 µM, respectively.

`Cc1cc(N2CCC[C@H](NCc3cccc(N4CCCC4)c3)C2)nc(N)n1` [drawing 242]: the IC50 in the assay on endogenous MYB is 8.08 µM; in the assay on Jurkat, 19.7 µM.

Consider `Cc1cc(N2CCC(NCc3cccc(N4CCCC4)c3)CC2)nc(N)n1` [KI-TM1-001, 4-Methyl-6-(4-((3-(pyrrolidin-1-yl)benzyl)amino)piperidin-1-yl)pyrimidin-2-amine], for which growth in assay [1] was halved (GI50) at 2.01 µM. In addition, at MYB [2], the “binding to MYB” value is “binds”. Besides, the half-maximal inhibitory concentration (IC50) at MYB-TAF12 interaction was 7.07 µM and 7.1 µM; in the assay on 800 cancer cell lines (PRISM data set, read-out: IC50 in a number of hematopoietic lines), less than 1 µM; with Molt4-5×MRE-FLuc cells it was more than 40 µM; with APL line NB4 it was 0.21 µM; in the assay with endogenous Myb protein, 13.6 µM. Besides, the “lineages most impacted / lineage enrichment (median AUC versus lineage)” value in the assay with 800 cancer cell lines (PRISM, roughly 650 lines passed quality control, FIG. 3A, listed as KI-TM-001) was “rhabdomysosarcoma, multiple myeloma, lymphoma, and leukemia; also recorded: mild enrichment for leukemia, lymphoma, multiple myeloma and rhabdomyosarcoma (RMS) cell lines”. Also, in the assay with MYB-NFIB fusion protein, the “binding to MYB-NFIB fusion protein” value is listed as “binds”. The “time to impact on MYB protein levels” value at MYB [3] (MOLT4 and Jurkat cells) is not above 2 h. The “mechanism of MYB degradation” value at MYB [3] (MYB rescued by the proteasome inhibitor MG132) is reported as “proteasome-dependent”. Moreover, on MYB [3] (different cell lines (MOLT4, Jurkat), FIG. 1C-E, FIG. 2, listed as KI-TM-001), the “effect on MYB protein levels” value is given as “dose-dependent reduction of MYB protein; also recorded: dose-dependent manner”.

As for `Cc1cc(N2CCC(NCc3cccc(-n4cccn4)c3)CC2)nc(N)n1`, the IC50 in the assay with endogenous MYB was 30.6 µM; in the assay with c-Myb, more than 40 µM; with Jurkat, more than 30 µM.

Take `Cc1cc(N2CCC(NCc3cccc(N4CCCCC4)c3)CC2)nc(N)n1` [drawing 235]: the 50% inhibitory concentration (IC50) was determined as 4.18 µM in the assay with endogenous MYB, 25.2 µM in the assay on c-Myb and 11.2 µM in the assay on Jurkat.

`Cc1cc(N2CCC(NCc3cccc(N4CCCC4)c3)CC2)nc(N)n1` [drawing 228]: the IC50 in the assay on endogenous MYB amounted to 3.49 µM; in the assay on c-Myb, 15.9 µM; with Jurkat, 3.24 µM.

On to `Cc1cc(N2CCC(NC(=O)c3cccc(N4CCCC4)c3)CC2)nc(N)n1` [drawing 234], for which the IC50 in the assay on endogenous MYB was 11.1 µM; with c-Myb, more than 40 µM; in the assay with Jurkat it was more than 30 µM.

As to `Cc1cc(N2CCC[C@@H](NCc3cccc(N4CCCC4)c3)C2)nc(N)n1` [drawing 241], the half-inhibitory concentration (IC50) in the assay on endogenous MYB was 2.25 µM; in the assay on Jurkat it was 4.41 µM.

For `Cc1cc(N2CCC(NCc3cccc(-n4ccnc4)c3)CC2)nc(N)n1` [drawing 240], the IC50 in the assay with endogenous MYB was 25.7 µM; in the assay with c-Myb, more than 40 µM; in the assay with Jurkat, more than 30 µM.

As to `CC(=O)N(Cc1cccc(N2CCCC2)c1)C1CCN(c2cc(C)nc(N)n2)CC1` [drawing 231], the IC50 in the assay with endogenous MYB was 11 µM; with Jurkat, more than 30 µM.

On to `Cc1cc(N2CCC(NCc3ccccc3)CC2)nc(N)n1`, for which the values for the concentration for half-maximal inhibition (IC50) in the assay on endogenous MYB, in the assay on c-Myb and in the assay with Jurkat were 25.7 µM, more than 40 µM and more than 30 µM, respectively.

For the compound `COc1cccc(CNC2CCN(c3cc(C)nc(N)n3)CC2)c1` [drawing 238], the IC50 in the assay with endogenous MYB was 30.1 µM; in the assay with c-Myb, more than 40 µM; in the assay with Jurkat, more than 30 µM.

Source of the values: patent US20230303512A1, “MODULATORS OF MYB-MEDIATED TRANSCRIPTION AND USES THEREOF” (Massachusetts Institute of Technology, priority 2020, published 2023).
